Test results from the supplement of paper PMC5762512.

Assays:
Assay in all cases: IC50 cell viability (Alamar Blue, 96 h)
11060 = test system: 11060
Protocol: (§1)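 Cells in log-phase growth were seeded in 96-well plates and treated with drug for 96 h at 37°C using 8-point serial dilutions from 0.0025 to 10 µM. Viability was read by Alamar Blue fluorescence after 6 h and normalised to positive and vehicle (DMSO) controls. IC50 values were fitted in ActivityBase; the value given is the mean of two independent experiments.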

PER-624 = test system: PER-624
Protocol: as §1

PER-704 = test system: PER-704
Protocol: as §1

HCC2429 = test system: HCC2429
Protocol: as §1

14169 = test system: 14169
Protocol: as §1

8645 = test system: 8645
Protocol: as §1

A549 = test system: A549
Protocol: as §1

PER-536 = test system: PER-536
Protocol: as §1

WI-38 = test system: WI-38
Protocol: as §1

TC797 = test system: TC797
Protocol: as §1

PER-535 = test system: PER-535
Protocol: as §1

PER-403 = test system: PER-403
Protocol: as §1

P896-CL = test system: P896-CL
Protocol: as §1

HS-27 = test system: HS-27
Protocol: as §1

TY82 = test system: TY82
Protocol: as §1

10326 = test system: 10326
Protocol: as §1

PER-712 = test system: PER-712
Protocol: as §1

CAKI-1 = test system: CAKI-1
Protocol: as §1

RPMI2650 = test system: RPMI2650
Protocol: as §1

PER-891 = test system: PER-891
Protocol: as §1

Compound | IC50 cell viability (HCC2429) | IC50 cell viability (A549) | IC50 cell viability 11060 | IC50 cell viability (PER-624) | IC50 cell viability (PER-704) | IC50 cell viability 14169 | IC50 cell viability 8645 | IC50 cell viability (PER-536) | IC50 cell viability (WI-38) | IC50 cell viability (TC797) | IC50 cell viability (PER-535) | IC50 cell viability (PER-403) | IC50 cell viability (P896-CL) | IC50 cell viability (HS-27) | IC50 cell viability (TY82) | IC50 cell viability 10326 | IC50 cell viability (PER-712) | IC50 cell viability (CAKI-1) | IC50 cell viability (RPMI2650) | IC50 cell viability (PER-891)
Cc1sc2c(c1C)C(c1ccc(Cl)cc1)=N[C@@H](CC(=O)Nc1ccc(O)cc1)c1nnc(C)n1-2 [OTX-015] | 55.8 nM | 784 nM | 194 nM | 4270 nM | 440 nM | 35.1 nM | 73.6 nM | 4260 nM | 543 nM | > 10000 nM | 622 nM | 42.6 nM | 921 nM | 2450 nM | 137 nM | 6.97 nM | 939 nM | 9360 nM | > 10000 nM | 6720 nM
O=C1c2c(O)ccc(O)c2C(=O)c2c(NCCNCCO)ccc(NCCNCCO)c21 [Mitoxantrone] | 10 nM | < 2.5 nM | 7.36 nM | 12.8 nM | 142 nM | < 2.5 nM | < 2.5 nM | 144 nM | 108 nM | 141 nM | 10.7 nM | 5.31 nM | 10.9 nM | 41.7 nM | 314 nM | < 2.5 nM | 570 nM | 1120 nM | 1280 nM | 266 nM
CC[C@@]1([C@@H]2O[C@@H]([C@H]3O[C@@](O)(CO)[C@H](C)C[C@@H]3C)C[C@@H]2C)CC[C@H]([C@]2(C)CC[C@]3(C[C@H](O)[C@@H](C)[C@@H]([C@@H](C)[C@@H](OC)[C@H](C)C(=O)O)O3)O2)O1 [Monensin] | 4880 nM | 234 nM | 3040 nM | 1420 nM | 9240 nM | 3510 nM | 4650 nM | > 10000 nM | 55 nM | 4080 nM | > 10000 nM | 5580 nM | 6830 nM | 235 nM | 5070 nM | 817 nM | 7480 nM | > 10000 nM | > 10000 nM | 5760 nM
O=C(CCCCCCC(=O)Nc1ccccc1)NO [Vorinostat] | 1170 nM | 2070 nM | 2740 nM | 1540 nM | 2140 nM | 1220 nM | 561 nM | > 10000 nM | 4450 nM | 7210 nM | 2440 nM | 732 nM | 3190 nM | 4290 nM | 2240 nM | 514 nM | 3450 nM | 4100 nM | 5840 nM | > 10000 nM
C/C(=C\c1csc(C)n1)[C@@H]1C[C@@H]2O[C@]2(C)CCC[C@H](C)[C@H](O)[C@@H](C)C(=O)C(C)(C)[C@@H](O)CC(=O)O1 [Epothilone B] | < 2.5 nM | < 2.5 nM | < 2.5 nM | < 2.5 nM | 3.8 nM | < 2.5 nM | < 2.5 nM | 7.59 nM | < 2.5 nM | 3.41 nM | 3.27 nM | < 2.5 nM | 3.22 nM | < 2.5 nM | 9.79 nM | < 2.5 nM | < 2.5 nM | 16.2 nM | > 10000 nM | 5010 nM
C[C@H]1O[C@@H](O[C@H]2[C@@H](O)C[C@H](O[C@H]3[C@@H](O)C[C@H](O[C@H]4CC[C@@]5(C)[C@H](CC[C@@H]6[C@@H]5C[C@@H](O)[C@]5(C)[C@@H](C7=CC(=O)OC7)CC[C@]65O)C4)O[C@@H]3C)O[C@@H]2C)C[C@H](O)[C@@H]1O [Digoxin] | 96.9 nM | 16.5 nM | 86.2 nM | 99.7 nM | 200 nM | 52 nM | 82.5 nM | 598 nM | 34 nM | 226 nM | 218 nM | 57.7 nM | 158 nM | 58.9 nM | 83.7 nM | 41.5 nM | 299 nM | 323 nM | 97.6 nM | 103 nM

The next lines start with results.

IC50 cell viability (HCC2429) | IC50 cell viability (A549) | Compound | IC50 cell viability 11060 | IC50 cell viability (PER-624) | IC50 cell viability (PER-704) | IC50 cell viability 14169 | IC50 cell viability 8645 | IC50 cell viability (PER-536) | IC50 cell viability (WI-38) | IC50 cell viability (TC797) | IC50 cell viability (PER-535) | IC50 cell viability (PER-403) | IC50 cell viability (P896-CL) | IC50 cell viability (HS-27) | IC50 cell viability (TY82) | IC50 cell viability 10326 | IC50 cell viability (PER-712) | IC50 cell viability (CAKI-1) | IC50 cell viability (RPMI2650) | IC50 cell viability (PER-891)
7.26 nM | 6.42 nM | Cc1csc(-c2nnc(Nc3ccc(Oc4ncccc4-c4ccnc(N)n4)cc3)c3ccccc23)c1 [AMG-900] | 98.1 nM | > 10000 nM | > 10000 nM | 3.94 nM | > 10000 nM | > 10000 nM | 7360 nM | > 10000 nM | 112 nM | < 2.5 nM | 5020 nM | > 10000 nM | > 10000 nM | 3.75 nM | > 10000 nM | > 10000 nM | > 10000 nM | > 10000 nM
173 nM | 95 nM | Cc1cc(/C=C/c2ccc3cc(N(C)C)ccc3[n+]2C)c(C)n1-c1ccccc1 [Pyrvinium pamoate] | 167 nM | 188 nM | 198 nM | 249 nM | 268 nM | 261 nM | 256 nM | 165 nM | 260 nM | 199 nM | 304 nM | 263 nM | 206 nM | 230 nM | 277 nM | 906 nM | 421 nM | 396 nM
40.3 nM | 61 nM | CN1CC[C@H](c2c(O)cc(O)c3c(=O)cc(-c4ccccc4Cl)oc23)[C@H](O)C1 [Flavopiridol] | 27.2 nM | 42.8 nM | 70.8 nM | 24.8 nM | 17.7 nM | 273 nM | 84.6 nM | 84.4 nM | 131 nM | 46.6 nM | 24.8 nM | 108 nM | 64.7 nM | 25.4 nM | 82.5 nM | 122 nM | 140 nM | 69.5 nM
17.5 nM | 118 nM | CC[C@@]1(O)C(=O)OCc2c1cc1n(c2=O)Cc2cc3c(CN(C)C)c(O)ccc3nc2-1 [Topotecan] | 14.6 nM | 11.7 nM | 312 nM | 17.7 nM | 17.4 nM | 81.6 nM | 2480 nM | 24.3 nM | 107 nM | 5.01 nM | 272 nM | 4570 nM | 116 nM | 13.3 nM | 243 nM | 622 nM | 391 nM | 728 nM
159 nM | 738 nM | COc1cc2c(cc1-c1c(C)noc1C)ncc1[nH]c(=O)n([C@H](C)c3ccccn3)c12 [I-BET 151] | 937 nM | 3240 nM | 950 nM | 178 nM | 529 nM | 4210 nM | 1760 nM | > 10000 nM | 1140 nM | 129 nM | 3150 nM | 4370 nM | 584 nM | 43.5 nM | 1940 nM | 7150 nM | 6810 nM | 9290 nM
